This is an account of results in the supplement of paper PMC8967900.
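Note: ALL cell lines in 384-well plates, five doses spanning 10,000-fold, each plate scaled between vehicle and 100 µmol/L benzalkonium chloride controls, sDSS an adapted area-under-curve metric.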

The subject of one assay is MN-60. In words: selective drug sensitivity score (sDSS, relative to normal bone marrow) (sDSS (score)); higher = more potent and effective on the cell line relative to normal bone marrow cells. The following applies: 72 h.
With `Cc1ccc(NC(=O)c2ccc(CN3CCN(C)CC3)cc2)cc1Nc1nc(-c2cccnc2)cs1` [Masitinib] (top concentration 10000 nM), the “selective drug sensitivity score” value is -1.58.

`CCN(CC)CCCC(C)Nc1c2ccc(Cl)cc2nc2ccc(OC)cc12` (stereo not given) [Mepacrine] (top concentration 50000 nM): the “selective drug sensitivity score” value was -5.7.

Take `COc1ccc(-c2ccc3ncc4c(c3c2)n(-c2ccc(N3CCNCC3)c(C(F)(F)F)c2)c(=O)n4C)cn1` [NVP-BGT226] (top concentration 1000 nM): the “selective drug sensitivity score” value was 5.72.

`COc1nc(N)nc2c1ncn2[C@@H]1O[C@H](CO)[C@@H](O)[C@@H]1O` [Nelarabine] (top concentration 10000 nM): the “selective drug sensitivity score” value is -10.2.

Consider `Cc1cn(-c2cc(NC(=O)c3ccc(C)c(Nc4nccc(-c5cccnc5)n4)c3)cc(C(F)(F)F)c2)cn1` [Nilotinib] (top concentration 10000 nM), for which the “selective drug sensitivity score” value was 0.

For `NC(=O)c1cccc2cn(-c3ccc(C4CCCNC4)cc3)nc12` (stereo not given) [Niraparib] (top concentration 10000 nM), the “selective drug sensitivity score” value was -3.02.

For `COc1ccc(C[C@H](NC(=O)[C@H](C)NC(=O)CN2CCOCC2)C(=O)N[C@@H](Cc2ccccc2)C(=O)[C@@]2(C)CO2)cc1` [ONX-0914] (top concentration 10000 nM), the “selective drug sensitivity score” value was -2.9.

Take `CC(=O)c1cnc2ccc(-c3cc(Cl)c(O)c(Cl)c3)nc2c1N[C@H]1CC[C@H](CN(C)C)CC1` [OTS167] (top concentration 1000 nM): the “selective drug sensitivity score” value is -1.82.

`COC(=O)C[C@](O)(CCCC(C)(C)O)C(=O)O[C@@H]1C(OC)=C[C@]23CCCN2CCc2cc4c(cc2[C@H]13)OCO4` [Omacetaxine] (top concentration 10000 nM): the “selective drug sensitivity score” value was -3.88.

The next assay has as its system MOLT-14. The description is as above. Particulars: 72 h.
As for `CCOC(=O)CCNc1cc(N2CCc3ccccc3CC2)nc(-c2ccccn2)n1` [GSK-J4] (top concentration 100000 nM), the “selective drug sensitivity score” value was -3.98.

Regarding `Cc1cc(Nc2cc(CN3CCOCC3)c3nc(C)c(Cc4ccc(Cl)cc4F)n3n2)n[nH]1` [Gandotinib] (top concentration 10000 nM), the “selective drug sensitivity score” value was 3.18.

Turning to `NC(=O)NO` [Hydroxyurea] (top concentration 1000000 nM), the “selective drug sensitivity score” value was determined as 9.16.

Take `Cc1ccc(NC(=O)c2ccc(CN3CCN(C)CC3)cc2)cc1Nc1nccc(-c2cccnc2)n1` [Imatinib] (top concentration 10000 nM): the “selective drug sensitivity score” value was 0.46.

As to `CC(C)NC[C@@H](C(=O)N1CCN(c2ncnc3c2[C@H](C)C[C@H]3O)CC1)c1ccc(Cl)cc1` [Ipatasertib] (top concentration 10000 nM), the “selective drug sensitivity score” value is -1.8.

In the case of `CCC(C)n1ncn(-c2ccc(N3CCN(c4ccc(OCC5COC(Cn6cncn6)(c6ccc(Cl)cc6Cl)O5)cc4)CC3)cc2)c1=O` (stereo not given) [Itraconazole] (top concentration 5000 nM), the “selective drug sensitivity score” value is -1.02.

Consider `Cc1sc2c(c1C)C(c1ccc(Cl)cc1)=N[C@@H](CC(=O)OC(C)(C)C)c1nnc(C)n1-2` [JQ1] (top concentration 10000 nM), for which the “selective drug sensitivity score” value is -0.58.

On to `CCNC(=O)c1noc(-c2cc(C(C)C)c(O)cc2O)c1-c1ccc(CN2CCOCC2)cc1` [Luminespib] (top concentration 1000 nM), for which the “selective drug sensitivity score” value was -0.6.

Turning to `O=C(c1cccc(Cl)c1F)N1CCN(Cc2cccc(Nc3nccs3)n2)CC1` [MK-8745] (top concentration 10000 nM), the “selective drug sensitivity score” value was 7.8.

For the compound `Cc1ccc(NC(=O)c2ccc(CN3CCN(C)CC3)cc2)cc1Nc1nc(-c2cccnc2)cs1` [Masitinib] (top concentration 10000 nM), the “selective drug sensitivity score” value came to 1.12.

Turning to `CCN(CC)CCCC(C)Nc1c2ccc(Cl)cc2nc2ccc(OC)cc12` (stereo not given) [Mepacrine] (top concentration 50000 nM), the “selective drug sensitivity score” value is -0.7.

For the compound `COc1ccc(-c2ccc3ncc4c(c3c2)n(-c2ccc(N3CCNCC3)c(C(F)(F)F)c2)c(=O)n4C)cn1` [NVP-BGT226] (top concentration 1000 nM), the “selective drug sensitivity score” value turned out to be 1.52.

As to `COc1nc(N)nc2c1ncn2[C@@H]1O[C@H](CO)[C@@H](O)[C@@H]1O` [Nelarabine] (top concentration 10000 nM), the “selective drug sensitivity score” value amounted to 8.78.

For `Cc1cn(-c2cc(NC(=O)c3ccc(C)c(Nc4nccc(-c5cccnc5)n4)c3)cc(C(F)(F)F)c2)cn1` [Nilotinib] (top concentration 10000 nM), the “selective drug sensitivity score” value stood at 2.1.

Take `NC(=O)c1cccc2cn(-c3ccc(C4CCCNC4)cc3)nc12` (stereo not given) [Niraparib] (top concentration 10000 nM): the “selective drug sensitivity score” value is 12.8.

As for `COc1ccc(C[C@H](NC(=O)[C@H](C)NC(=O)CN2CCOCC2)C(=O)N[C@@H](Cc2ccccc2)C(=O)[C@@]2(C)CO2)cc1` [ONX-0914] (top concentration 10000 nM), the “selective drug sensitivity score” value was 0.5.

Consider `CC(=O)c1cnc2ccc(-c3cc(Cl)c(O)c(Cl)c3)nc2c1N[C@H]1CC[C@H](CN(C)C)CC1` [OTS167] (top concentration 1000 nM), for which the “selective drug sensitivity score” value came to 2.78.

Consider `COC(=O)C[C@](O)(CCCC(C)(C)O)C(=O)O[C@@H]1C(OC)=C[C@]23CCCN2CCc2cc4c(cc2[C@H]13)OCO4` [Omacetaxine] (top concentration 10000 nM), for which the “selective drug sensitivity score” value amounted to 5.62.

Another assay has as its system MOLT-16. The assay is described as above. Particulars: 72 h.
As to `CCOC(=O)CCNc1cc(N2CCc3ccccc3CC2)nc(-c2ccccn2)n1` [GSK-J4] (top concentration 100000 nM), the “selective drug sensitivity score” value is -5.48.

`Cc1cc(Nc2cc(CN3CCOCC3)c3nc(C)c(Cc4ccc(Cl)cc4F)n3n2)n[nH]1` [Gandotinib] (top concentration 10000 nM): the “selective drug sensitivity score” value was determined as 5.68.

Consider `NC(=O)NO` [Hydroxyurea] (top concentration 1000000 nM), for which the “selective drug sensitivity score” value was found to be 5.76.

For `Cc1ccc(NC(=O)c2ccc(CN3CCN(C)CC3)cc2)cc1Nc1nccc(-c2cccnc2)n1` [Imatinib] (top concentration 10000 nM), the “selective drug sensitivity score” value came to 0.46.

With `CC(C)NC[C@@H](C(=O)N1CCN(c2ncnc3c2[C@H](C)C[C@H]3O)CC1)c1ccc(Cl)cc1` [Ipatasertib] (top concentration 10000 nM), the “selective drug sensitivity score” value came to 10.9.

For the compound `CCC(C)n1ncn(-c2ccc(N3CCN(c4ccc(OCC5COC(Cn6cncn6)(c6ccc(Cl)cc6Cl)O5)cc4)CC3)cc2)c1=O` (stereo not given) [Itraconazole] (top concentration 5000 nM), the “selective drug sensitivity score” value was determined as 2.38.

Regarding `Cc1sc2c(c1C)C(c1ccc(Cl)cc1)=N[C@@H](CC(=O)OC(C)(C)C)c1nnc(C)n1-2` [JQ1] (top concentration 10000 nM), the “selective drug sensitivity score” value was found to be 8.82.

As to `CCNC(=O)c1noc(-c2cc(C(C)C)c(O)cc2O)c1-c1ccc(CN2CCOCC2)cc1` [Luminespib] (top concentration 1000 nM), the “selective drug sensitivity score” value stood at 4.6.

Turning to `O=C(c1cccc(Cl)c1F)N1CCN(Cc2cccc(Nc3nccs3)n2)CC1` [MK-8745] (top concentration 10000 nM), the “selective drug sensitivity score” value stood at 12.2.

As to `Cc1ccc(NC(=O)c2ccc(CN3CCN(C)CC3)cc2)cc1Nc1nc(-c2cccnc2)cs1` [Masitinib] (top concentration 10000 nM), the “selective drug sensitivity score” value is 3.42.

As to `CCN(CC)CCCC(C)Nc1c2ccc(Cl)cc2nc2ccc(OC)cc12` (stereo not given) [Mepacrine] (top concentration 50000 nM), the “selective drug sensitivity score” value was -0.8.

For the compound `COc1ccc(-c2ccc3ncc4c(c3c2)n(-c2ccc(N3CCNCC3)c(C(F)(F)F)c2)c(=O)n4C)cn1` [NVP-BGT226] (top concentration 1000 nM), the “selective drug sensitivity score” value was found to be 12.2.

`COc1nc(N)nc2c1ncn2[C@@H]1O[C@H](CO)[C@@H](O)[C@@H]1O` [Nelarabine] (top concentration 10000 nM): the “selective drug sensitivity score” value was -7.22.

With `Cc1cn(-c2cc(NC(=O)c3ccc(C)c(Nc4nccc(-c5cccnc5)n4)c3)cc(C(F)(F)F)c2)cn1` [Nilotinib] (top concentration 10000 nM), the “selective drug sensitivity score” value turned out to be 2.1.

`NC(=O)c1cccc2cn(-c3ccc(C4CCCNC4)cc3)nc12` (stereo not given) [Niraparib] (top concentration 10000 nM): the “selective drug sensitivity score” value amounted to 4.78.

On to `COc1ccc(C[C@H](NC(=O)[C@H](C)NC(=O)CN2CCOCC2)C(=O)N[C@@H](Cc2ccccc2)C(=O)[C@@]2(C)CO2)cc1` [ONX-0914] (top concentration 10000 nM), for which the “selective drug sensitivity score” value turned out to be 2.5.

As for `CC(=O)c1cnc2ccc(-c3cc(Cl)c(O)c(Cl)c3)nc2c1N[C@H]1CC[C@H](CN(C)C)CC1` [OTS167] (top concentration 1000 nM), the “selective drug sensitivity score” value was 2.78.

For the compound `COC(=O)C[C@](O)(CCCC(C)(C)O)C(=O)O[C@@H]1C(OC)=C[C@]23CCCN2CCc2cc4c(cc2[C@H]13)OCO4` [Omacetaxine] (top concentration 10000 nM), the “selective drug sensitivity score” value worked out at 6.32.
